{
  "source": "BindingDB's records for doi:10.1016/0960-894X(96)00018-2",
  "about": "(1996)",
  "molecular_target": "T1, Prostatic acid phosphatase (Homo sapiens, UniProt P15309)",
  "T1 sequence (P15309 whole entry)": "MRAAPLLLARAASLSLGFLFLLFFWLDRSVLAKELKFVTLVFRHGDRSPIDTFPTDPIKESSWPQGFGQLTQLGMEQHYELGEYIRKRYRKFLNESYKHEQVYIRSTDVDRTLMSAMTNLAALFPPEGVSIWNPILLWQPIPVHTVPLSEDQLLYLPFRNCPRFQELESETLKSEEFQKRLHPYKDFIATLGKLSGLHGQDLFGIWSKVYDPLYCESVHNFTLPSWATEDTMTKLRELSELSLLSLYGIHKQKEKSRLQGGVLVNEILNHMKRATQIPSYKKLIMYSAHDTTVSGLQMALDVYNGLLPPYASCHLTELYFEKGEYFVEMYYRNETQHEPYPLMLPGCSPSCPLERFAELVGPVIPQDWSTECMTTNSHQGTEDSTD",
  "experiment": "ChEBML_158626",
  "experimental": "Inhibition of human prostatic acid phosphatase was determined as inhibition of the hydrolysis of tyrosine phosphate",
  "data": [
    {"smiles": "OP(O)(O)=c1c2ccccc2ccc2ccccc12", "note": "[(5H-Dibenzo[a,d]cyclohepten-5-yl)-phosphonic acid]", "values": [
      {"measurement": "IC50", "value": "> 100", "unit": "µM"}
    ]},
    {"smiles": "OP(O)(O)=c1c2ccccc2sc2ccccc12", "note": "[(9H-Thioxanthen-9-yl)-phosphonic acid]", "values": [
      {"measurement": "IC50", "value": "> 100", "unit": "µM"}
    ]}
  ]
}
